Data set [1] is described as follows: Test example 13: stability test in pure water. Type of data set: physicochemical. The conditions noted are these: for stability in pure water (finding): up to 48 hours. Here is the method:
Test compound is prepared to saturation state in pure water. The resulting solution is shaken at room temperature for 1 hour. To a filter tube, the entire solution obtained after the shaking is transferred and is subjected to centrifugal filtration at room temperature. The filtrate is analyzed by HPLC right after the filtration, 24 hours, and 48 hours after the filtration. Then, by using a calibration curve, stability of the test compound is obtained from the peak area value.
Standard solution is prepared by precisely weighing each test compound and fully dissolving it in pure water. Calibration curve is established by having the concentration of the standard solution as a horizontal axis and the HPLC area value at the corresponding concentration as a vertical axis.
As a separation column, YMC-Pack C18 (4.6 mm×150 mm, manufactured by YMC) is used. Detection is made at UV-254 nm and the temperature inside the column is 40° C. Condition for elution is as follows; with flow rate of 1 ml/minute, solution A as a solvent=water [comprising 0.1% (v/v) acetic acid] and solution B=acetonitrile are used, and from minute 0 to minute 20, 5 to 98% (v/v) linear gradient of solution B is applied, followed by elution with 98% of solution B until minute 25 and elution with 5% of solution B from minute 25.01 to minute 35.

Data set [2] can be described thus: Test example 12: solubility test in physiological saline. Type of data set: physicochemical. The conditions noted are these: saline or isotonic, thermodynamic from solid, 37° C., prepared at 1000 μg/mL. Here is the method: 500 μg of the test compound is precisely weighed, and then added with hydrochloric acid buffer solution having pH 1.2 until the concentration of 1000 μg/mL is obtained. The […] is shaken at 37° C. for 1 hour. To a filter tube, the entire solution obtained after the shaking is transferred and is subjected to centrifugal filtration at room temperature. The filtrate is analyzed by HPLC, and by using a calibration curve, saturation solubility of the test compound is obtained from the peak area value.
Except that the hydrochloric acid buffer solution having pH 1.2 is replaced with physiological saline, the test is carried out in the same method as Test example 11 to obtain the solubility of the test compound.

In data set [3] the test system is rat under pentobarbital anesthesia. Briefly: Test example 9: effect on blood pressure and heart rate of a rat under pentobarbital anesthesia. Format: in vivo. The note with it: male SD rat, 3 mg/kg intravenous bolus; greatest change of mean blood pressure relative to before administration; mean ± standard deviation. Here is the method: After measuring blood pressure and heart rate of a rat under pentobarbital anesthesia, an effect of intravenous bolus administration of a test compound on blood pressure and heart rate can be determined. To a male SD rat (Japan SLC Inc.), sodium pentobarbital (Tokyo Chemical Industry Co., Ltd.) is intraperitoneally administered for induction of anesthesia (50 mg/kg). As maintenance anesthetics, sodium pentobarbital is subcutaneously administered (25 mg/kg). Left femoral vein is exposed and stripped, and then a polyethylene tube SP10 (connected to a three-way stopcock via ¼ vein needle) which has been filled with physiological saline is inserted and left in the vein.
Left medial femoral region is cut to expose and strip the femoral artery, and then a polyethylene tube (SP31, connected to a three-way stopcock via 22 G injection needle by TERUMO Corporation) which has been filled with heparin physiological saline is inserted and connected to a pressure transducer. Blood pressure is measured from the pressure transducer by using a modified pressure amplifier (AP-641 G, Nihon Kohden Corporation). Heart rate is measured by using the Heart rate Counter (AT-601 g, Nihon Kohden Corporation) while having the pulse wave of the blood pressure as a trigger. The blood pressure, mean blood pressure and heart rate are transmitted to the data recorder for recordation. In addition, the mean blood pressure is recorded using a modified pressure amplifier (AP-641 G) according to the equation of {diastolic blood pressure+(systolic blood pressure−diastolic blood pressure)/3}.
Blood pressure and heart rate measurement is started, and after confirming that each value remains almost constant, the test compound (3 mg/kg) is administered to the left femoral vein for 30 seconds. Specifically, the test compound with 3 mg/mL concentration is bolus administered at the administration dose of 1 mL/kg. Relative value (%) at each time point compared to the mean blood pressure and the heart rate before the administration is obtained for each individual. […]

The test system of data set [4] is urinary bladder smooth muscle isolated from common marmoset. The data set is described as follows: Test example 7: relaxant activity on urinary bladder smooth muscle isolated from common marmoset. The note with it: strips contracted by 40 mmol/L KCl, papaverine 10^−4 mol/L relaxation = 100%.
Description: Specifically, a common marmoset (CLEA Japan, Inc.) is bled to exsanguinated death, and then the urinary bladder is taken out of the marmoset via laparotomy. […] A resting tension of 1 g is applied to the strips, which is then equilibrated for more than 30 minutes. […] The final concentration is 10^−9, 10^−8, 10^−7, 10^−8, 10^−5 and 10^−4 mol/L. Upon the completion of the relaxation response to the test compound at the highest concentration, papaverine with final concentration of 10^−4 mol/L is added and the maximum relaxation response is obtained for each strip. This relaxation response is taken as 100%, and the relaxation ratio (%) is obtained for the test compound at the concentrations of 10^−5 and 10^−4 mol/L.
In data set [5] the target is T1, human α1A adrenergic receptor (Homo sapiens, UniProt P35348).
T1 construct: expressed in transfected cells; host or cells: HEK293 cells, pcDNA3.1(−), geneticin-selected
T1 sequence (P35348 1-466): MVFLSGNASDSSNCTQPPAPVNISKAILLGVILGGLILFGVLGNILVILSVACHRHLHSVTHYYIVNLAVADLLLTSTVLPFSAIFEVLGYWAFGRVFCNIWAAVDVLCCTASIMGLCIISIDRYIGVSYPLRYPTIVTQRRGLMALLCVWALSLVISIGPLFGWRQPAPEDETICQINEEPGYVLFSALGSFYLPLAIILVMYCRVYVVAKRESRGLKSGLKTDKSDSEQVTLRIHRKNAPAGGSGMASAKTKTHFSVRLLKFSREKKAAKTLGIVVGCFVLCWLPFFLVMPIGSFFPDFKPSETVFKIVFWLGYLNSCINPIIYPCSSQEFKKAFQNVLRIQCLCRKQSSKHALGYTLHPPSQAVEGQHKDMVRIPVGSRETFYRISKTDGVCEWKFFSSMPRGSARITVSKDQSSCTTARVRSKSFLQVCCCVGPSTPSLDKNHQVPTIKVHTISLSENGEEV
Briefly: Test example 4: human α1A adrenergic receptor agonist activity (Ca flux, Fura-2). Type of data set: cell-based. The note with it: for Emax: Table 4, Test example 4, maximum response to norephinephrine taken as 100%, read-out: α1A receptor I.A. Here is the method: Human α1A adrenergic receptor agonist activity is determined by using HEK293 cells transfected with pcDNA3.1(−) (Invitrogen) to which human α1A gene has been inserted. These cells are cultured in a DMEM medium containing 10% fetal bovine serum, 400 μg/mL geneticin (Gibco BRL), 100 U/ml penicillin and 100 μg/ml streptomycin. […] After carrying out the loading for 30 minutes in a CO2 incubator, excess Fura-2AM is removed by washing the cells twice with the assay buffer. The cells obtained after the centrifuge is prepared to 5×10^6 cells/ml by using the assay buffer, and aliquoted into a 96-well UV plate (manufactured by Corning Inc.) to give a cell plate (80 μl/well). […] After the measurement for about 30 seconds, 20 μl of the test sample from the sample plate is added to the cell plate and the measurement is continued for another 270 seconds. Ca flux caused by the test compound is obtained from the peak height difference between the maximum value of fluorescence intensity ratio at 340 nm and 380 nm after the addition of the test compound and the fluorescence intensity ratio before the addition of the test compound. Maximum response to norephinephrine as a positive control is taken as 100%, and the maximum response ratio of each test compound is obtained as Intrinsic Activity [I.A. (%)].

Converted amounts (≈) assume the structure as drawn.

From US8304443B2, “Indazole derivatives” (Asahi Kasei Pharma Corporation, priority 2008, dated 2012) come the findings set out here.

Broadly, the solubility is the concentration that dissolves in the medium under given conditions. High values mean a readily soluble substance, low ones a poorly soluble substance. Broadly, the EC50 is the midpoint of the concentration-response curve. A low value points to an effect from little substance.

For the compound `CS(=O)(=O)Nc1cccc([C@@H](O)CNCCOc2ccc3c(C4CC4)n[nH]c3c2)c1` [Example 1, (R)—N-(3-(1-Hydroxy-2-(2-(3-cyclopropylindazol-6-yloxy)ethylamino)ethyl)phenyl)methanesulfonamide], in data set [1], the “HPLC area percentage at 24 hours after the filtration” value is 95.6%, the “HPLC area percentage at 48 hours after the filtration” value is given as 95.6%, the “HPLC area percentage right after the filtration” value stood at 95.7% and the “stability in pure water (finding)” value is recorded as “stable”. The compound also displayed a solubility at 1 h in data set [2] of 999 µg/mL (≈ 2320 µM). In addition, the “increase in MBP (%)” value in data set [3] is 2.7 ± 0.5%. In data set [4], the “relaxant activity (%) 10^−4 M” value turned out to be 55.7% and the “relaxant activity (%) 10^−5 M” value is on record as 38.6%. In addition, in data set [5], the midpoint of the response, the EC50, lay at 1.67 µM and the Emax is 20%.
As for `CS(=O)(=O)Nc1cccc([C@@H](O)CNCCOc2ccc3c(C4CCC4)n[nH]c3c2)c1` [Example 2, (R)—N-(3-(1-Hydroxy-2-(2-(3-cyclobutylindazol-6-yloxy)ethylamino)ethyl)phenyl)methanesulfonamide], in data set [1], the “HPLC area percentage at 24 hours after the filtration” value worked out at 95.2%, the “HPLC area percentage at 48 hours after the filtration” value is reported as 95.0%, the “HPLC area percentage right after the filtration” value came to 95.2% and the “stability in pure water (finding)” value is on record as “stable”. For the same compound, the solubility at 1 h in data set [2] is 999 µg/mL (≈ 2250 µM). The “increase in MBP (%)” value in data set [3] came to 4.0 ± 2.6%. Besides, in data set [4], the “relaxant activity (%) 10^−4 M” value worked out at 65.6% and the “relaxant activity (%) 10^−5 M” value turned out to be 50.8%. Also, the Emax in data set [5] worked out at 10%.
